Tested on: MV-4-11 cells
Assay: Gene expression microarray analysis (Affymetrix PrimeView) and GSEA
Format: cell-based, human
Parameters: RFU PODN (11730768_x_at) / Fold change /veh PODN (11730768_x_at) / RFU LINC00158 (11744669_a_at) / Fold change /veh LINC00158 (11744669_a_at) / RFU DUSP10 (11751237_a_at) / Fold change /veh DUSP10 (11751237_a_at) / RFU ID3 (11757404_x_at) / Fold change /veh ID3 (11757404_x_at) / RFU PLEKHG5 (11737974_s_at) / Fold change /veh PLEKHG5 (11737974_s_at) / RFU LRRC4B (11730491_at) / Fold change /veh LRRC4B (11730491_at) / RFU GIMAP4 (11747438_a_at) / Fold change /veh GIMAP4 (11747438_a_at) / RFU KRT8 (11758183_x_at) / Fold change /veh KRT8 (11758183_x_at) / RFU CNN1 (11734310_a_at) / Fold change /veh CNN1 (11734310_a_at) / RFU VPS37D (11726825_at) / Fold change /veh VPS37D (11726825_at) / RFU C10orf10 (11716522_x_at) / Fold change /veh C10orf10 (11716522_x_at) / RFU KIR2DL2 /// KIR2DL4 /// KIR2DL5A /// KIR2DL5B /// KIR2DS1 /// KIR2DS2 /// KIR2DS3 /// KIR2DS4 /// KIR3DL3 /// KIR3DL3 /// KIR3DS1 (11738374_at) / Fold change /veh KIR2DL2 /// KIR2DL4 /// KIR2DL5A /// KIR2DL5B /// KIR2DS1 /// KIR2DS2 /// KIR2DS3 /// KIR2DS4 /// KIR3DL3 /// KIR3DL3 /// KIR3DS1 (11738374_at) / RFU C1QL1 (11718748_at) / Fold change /veh C1QL1 (11718748_at) / RFU TMPRSS4 (11747572_a_at) / Fold change /veh TMPRSS4 (11747572_a_at) / RFU HAMP (11756126_x_at) / Fold change /veh HAMP (11756126_x_at) / RFU RNFT2 (11725882_a_at) / Fold change /veh RNFT2 (11725882_a_at) / RFU NR4A2 (11747474_a_at) / Fold change /veh NR4A2 (11747474_a_at) / RFU ABCC12 (11746883_a_at) / Fold change /veh ABCC12 (11746883_a_at) / RFU TMEM136 (11760407_x_at) / Fold change /veh TMEM136 (11760407_x_at) / RFU CLDN22 /// WWC2 (11732394_at) / Fold change /veh CLDN22 /// WWC2 (11732394_at) / RFU HLA-DPB1 (11760878_x_at) / Fold change /veh HLA-DPB1 (11760878_x_at) / RFU SPINT1 (11716480_a_at) / Fold change /veh SPINT1 (11716480_a_at) / RFU GAP43 (11754022_s_at) / Fold change /veh GAP43 (11754022_s_at) / RFU A4GNT (11735810_at) / Fold change /veh A4GNT (11735810_at) / RFU PRB3 (11715151_x_at) / Fold change /veh PRB3 (11715151_x_at) / RFU TUBB4B (11761932_at) / Fold change /veh TUBB4B (11761932_at) / RFU CAPN14 (11732068_a_at) / Fold change /veh CAPN14 (11732068_a_at) / RFU TMCC2 (11721928_a_at) / Fold change /veh TMCC2 (11721928_a_at) / RFU IRGQ (11745062_a_at) / Fold change /veh IRGQ (11745062_a_at) / RFU FAM174B (11720279_a_at) / Fold change /veh FAM174B (11720279_a_at) / RFU TMPRSS4 (11748680_a_at) / Fold change /veh TMPRSS4 (11748680_a_at) / RFU FAM212B (11763350_a_at) / Fold change /veh FAM212B (11763350_a_at) / RFU PLEKHG5 (11743358_a_at) / Fold change /veh PLEKHG5 (11743358_a_at) / RFU ZSCAN30 (11745921_a_at) / Fold change /veh ZSCAN30 (11745921_a_at) / RFU CMKLR1 (11741424_a_at) / Fold change /veh CMKLR1 (11741424_a_at) / RFU LOC101060620 /// MAPK8IP1 (11723275_at) / Fold change /veh LOC101060620 /// MAPK8IP1 (11723275_at) / RFU SPTSSB (11747773_x_at) / Fold change /veh SPTSSB (11747773_x_at) / RFU PRSS12 (11739890_at) / Fold change /veh PRSS12 (11739890_at) / RFU BIN1 (11741810_x_at) / Fold change /veh BIN1 (11741810_x_at) / RFU WNT11 (11732464_a_at) / Fold change /veh WNT11 (11732464_a_at) / RFU C10orf10 (11716521_a_at) / Fold change /veh C10orf10 (11716521_a_at) / RFU C5orf56 (11738089_at) / Fold change /veh C5orf56 (11738089_at) / RFU CYB561 (11721691_x_at) / Fold change /veh CYB561 (11721691_x_at) / RFU ANKRD19P (11752326_a_at) / Fold change /veh ANKRD19P (11752326_a_at) / RFU OR2T12 /// OR2T33 /// OR2T8 (11738714_s_at) / Fold change /veh OR2T12 /// OR2T33 /// OR2T8 (11738714_s_at) / RFU VCAN (11748164_a_at) / Fold change /veh VCAN (11748164_a_at) / RFU JSRP1 (11732532_at) / Fold change /veh JSRP1 (11732532_at) / RFU KRTAP10-11 (11738290_x_at) / Fold change /veh KRTAP10-11 (11738290_x_at) / RFU MYO3A (11730013_a_at) / Fold change /veh MYO3A (11730013_a_at) / RFU EBF3 (11725865_a_at) / Fold change /veh EBF3 (11725865_a_at) / RFU CAMK2N1 (11719241_x_at) / Fold change /veh CAMK2N1 (11719241_x_at) / RFU C5orf56 (11738088_a_at) / Fold change /veh C5orf56 (11738088_a_at) / RFU OLFML3 (11715873_a_at) / Fold change /veh OLFML3 (11715873_a_at) / RFU LOC100653217 /// NTM (11731650_a_at) / Fold change /veh LOC100653217 /// NTM (11731650_a_at) / RFU MAPK11 (11762145_a_at) / Fold change /veh MAPK11 (11762145_a_at) / RFU FIZ1 (11724087_x_at) / Fold change /veh FIZ1 (11724087_x_at) / RFU OASL (11726364_x_at) / Fold change /veh OASL (11726364_x_at) / RFU SOX15 (11748057_x_at) / Fold change /veh SOX15 (11748057_x_at) / RFU CD79A (11719716_a_at) / Fold change /veh CD79A (11719716_a_at) / RFU HIST1H1D (11736915_at) / Fold change /veh HIST1H1D (11736915_at) / RFU CASKIN2 (11723855_a_at) / Fold change /veh CASKIN2 (11723855_a_at) / RFU LOC730098 (11760151_x_at) / Fold change /veh LOC730098 (11760151_x_at) / RFU OR4N2 (11742367_at) / Fold change /veh OR4N2 (11742367_at) / RFU PRRT2 (11749266_a_at) / Fold change /veh PRRT2 (11749266_a_at) / RFU SNX32 (11753110_a_at) / Fold change /veh SNX32 (11753110_a_at) / RFU CDHR5 (11726645_a_at) / Fold change /veh CDHR5 (11726645_a_at) / RFU RCAN1 (11760418_a_at) / Fold change /veh RCAN1 (11760418_a_at) / RFU FAM167A (11723789_a_at) / Fold change /veh FAM167A (11723789_a_at) / RFU FAM26E (11764081_at) / Fold change /veh FAM26E (11764081_at) / RFU ISYNA1 (11749810_s_at) / Fold change /veh ISYNA1 (11749810_s_at) / RFU ACY1 (11761880_at) / Fold change /veh ACY1 (11761880_at) / RFU 11764098_at / Fold change /veh 11764098_at / RFU SAMD14 (11745864_x_at) / Fold change /veh SAMD14 (11745864_x_at) / RFU NPB (11741838_a_at) / Fold change /veh NPB (11741838_a_at) / RFU TMPRSS6 (11731388_a_at) / Fold change /veh TMPRSS6 (11731388_a_at) / RFU KRTAP10-2 (11738614_at) / Fold change /veh KRTAP10-2 (11738614_at) / RFU ARHGAP8 /// PRR5-ARHGAP8 (11727945_x_at) / Fold change /veh ARHGAP8 /// PRR5-ARHGAP8 (11727945_x_at) / RFU KRTAP5-7 /// NADSYN1 (11734609_at) / Fold change /veh KRTAP5-7 /// NADSYN1 (11734609_at) / RFU RASL12 (11751679_a_at) / Fold change /veh RASL12 (11751679_a_at) / RFU CDKN2B (11736163_a_at) / Fold change /veh CDKN2B (11736163_a_at) / RFU PRF1 (11729649_at) / Fold change /veh PRF1 (11729649_at) / RFU, ZNF638 /// ZNF638-IT1 / Fold change vs veh, ZNF638 /// ZNF638-IT1 / RFU, PANK3 / Fold change vs veh, PANK3 / RFU, SH3YL1 / Fold change vs veh, SH3YL1 / RFU, ZEB2 / Fold change vs veh, ZEB2 / RFU, NRIP1 / Fold change vs veh, NRIP1 / RFU, PTTG1IP / Fold change vs veh, PTTG1IP / RFU, CAPN2 / Fold change vs veh, CAPN2 / RFU, MED14 / Fold change vs veh, MED14 / RFU, SNORA58 / Fold change vs veh, SNORA58 / RFU, C1orf63 / Fold change vs veh, C1orf63 / RFU, LRRFIP1 / Fold change vs veh, LRRFIP1 / RFU, NDUFAF7 / Fold change vs veh, NDUFAF7 / RFU, SLC12A2 / Fold change vs veh, SLC12A2 / RFU, IBTK / Fold change vs veh, IBTK / RFU, ESF1 / Fold change vs veh, ESF1 / Fold change vs veh, TMEM50B / RFU, TAOK1 / Fold change vs veh, TAOK1 / RFU, ACBD3 / Fold change vs veh, ACBD3 / RFU, TMA16 / Fold change vs veh, TMA16 / RFU, RWDD3 / Fold change vs veh, RWDD3 / RFU, BCAT1 / Fold change vs veh, BCAT1 / RFU, EDEM3 / Fold change vs veh, EDEM3 / RFU, TMEM33 / Fold change vs veh, TMEM33 / RFU, WDR75 / Fold change vs veh, WDR75 / RFU, AHCTF1 / Fold change vs veh, AHCTF1 / RFU, TFRC / Fold change vs veh, TFRC / RFU, ZDHHC17 / Fold change vs veh, ZDHHC17 / RFU, NOM1 / Fold change vs veh, NOM1 / RFU, ARL8B / Fold change vs veh, ARL8B / RFU, ZBTB11 / Fold change vs veh, ZBTB11 / RFU, TAMM41 / Fold change vs veh, TAMM41 / RFU, KIAA1704 /// LOC100996395 / Fold change vs veh, KIAA1704 /// LOC100996395 / RFU, ING1 / Fold change vs veh, ING1 / RFU, TRMT61B / Fold change vs veh, TRMT61B / RFU, FUBP3 / Fold change vs veh, FUBP3 / RFU, TP53 / Fold change vs veh, TP53 / RFU, TNKS2 / Fold change vs veh, TNKS2 / RFU, ZFP14 / Fold change vs veh, ZFP14 / RFU, ACTR2 / Fold change vs veh, ACTR2 / RFU, PPP3R1 / Fold change vs veh, PPP3R1 / RFU, PIK3R1 / Fold change vs veh, PIK3R1 / RFU, HNRNPA1 / Fold change vs veh, HNRNPA1 / RFU, RNF170 / Fold change vs veh, RNF170 / RFU, ZNF28 / Fold change vs veh, ZNF28 / RFU, RNGTT / Fold change vs veh, RNGTT / RFU, OGT / Fold change vs veh, OGT / RFU, BRD1 / Fold change vs veh, BRD1 / RFU, MARS / Fold change vs veh, MARS / RFU, ZNF655 / Fold change vs veh, ZNF655 / RFU, FAHD1 / Fold change vs veh, FAHD1 / RFU, BDP1 / Fold change vs veh, BDP1 / RFU, LRRCC1 / Fold change vs veh, LRRCC1 / RFU, ARID1A / Fold change vs veh, ARID1A / RFU, ZNF146 / Fold change vs veh, ZNF146 / RFU, ZNF330 / Fold change vs veh, ZNF330 / RFU, GPN3 / Fold change vs veh, GPN3 / RFU, C9orf123 / Fold change vs veh, C9orf123 / RFU, N4BP2L2 / Fold change vs veh, N4BP2L2 / RFU, ARFIP1 / Fold change vs veh, ARFIP1 / RFU, FAM179B / Fold change vs veh, FAM179B / RFU, BCL10 / Fold change vs veh, BCL10 / RFU, UHRF1BP1L / Fold change vs veh, UHRF1BP1L / RFU, BET1 / Fold change vs veh, BET1 / RFU, CNOT2 / Fold change vs veh, CNOT2 / RFU, ZNF268 / Fold change vs veh, ZNF268 / Fold change vs veh, ZNF507 / RFU, DGCR2 / Fold change vs veh, DGCR2 / RFU, WDSUB1 / Fold change vs veh, WDSUB1 / Fold change vs veh, HSP90B1 /// MIR3652 / RFU, ADSS / Fold change vs veh, ADSS / RFU, GK / Fold change vs veh, GK / RFU, ZNF148 / Fold change vs veh, ZNF148 / RFU, TAF9 / Fold change vs veh, TAF9 / RFU, SLC1A5 / Fold change vs veh, SLC1A5 / RFU, SLMO2 / Fold change vs veh, SLMO2 / RFU, ABCC4 / Fold change vs veh, ABCC4 / RFU, LOC101060439 /// RAP1B / Fold change vs veh, LOC101060439 /// RAP1B / RFU, RFX7 / Fold change vs veh, RFX7 / RFU, GTPBP10 / Fold change vs veh, GTPBP10 / RFU, CNEP1R1 / Fold change vs veh, CNEP1R1 / RFU, BIVM-ERCC5 /// ERCC5 / Fold change vs veh, BIVM-ERCC5 /// ERCC5 / RFU, ILF3 / Fold change vs veh, ILF3 / RFU 11762660_at / Fold change /veh 11762660_at / RFU VCAN (11757783_s_at) / Fold change /veh VCAN (11757783_s_at) / RFU DDX43 (11728927_at) / Fold change /veh DDX43 (11728927_at) / RFU KRT8 (11758188_x_at) / Fold change /veh KRT8 (11758188_x_at) / RFU NKD1 (11759106_at) / Fold change /veh NKD1 (11759106_at) / RFU SRD5A1 (11742802_a_at) / Fold change /veh SRD5A1 (11742802_a_at) / RFU TPSAB1 /// TPSB2 (11721975_s_at) / Fold change /veh TPSAB1 /// TPSB2 (11721975_s_at) / RFU GSTM3 (11746129_a_at) / Fold change /veh GSTM3 (11746129_a_at) / RFU IL23R (11737362_x_at) / Fold change /veh IL23R (11737362_x_at) / RFU TMEM51 (11727254_a_at) / Fold change /veh TMEM51 (11727254_a_at) / RFU PIWIL2 (11732686_x_at) / Fold change /veh PIWIL2 (11732686_x_at) / RFU ORM1 (11744905_x_at) / Fold change /veh ORM1 (11744905_x_at) / RFU CCDC152 (11743942_at) / Fold change /veh CCDC152 (11743942_at) / RFU ECM1 (11717891_a_at) / Fold change /veh ECM1 (11717891_a_at) / RFU IL23R (11748794_a_at) / Fold change /veh IL23R (11748794_a_at) / RFU TNFAIP8L3 (11732012_x_at) / Fold change /veh TNFAIP8L3 (11732012_x_at) / RFU MBOAT4 (11741988_at) / Fold change /veh MBOAT4 (11741988_at) / RFU 11764193_at / Fold change /veh 11764193_at / RFU TMEM53 (11763286_at) / Fold change /veh TMEM53 (11763286_at) / RFU MAGEB2 (11727129_at) / Fold change /veh MAGEB2 (11727129_at) / RFU TMEM200A (11744735_a_at) / Fold change /veh TMEM200A (11744735_a_at) / RFU CCDC152 (11751479_a_at) / Fold change /veh CCDC152 (11751479_a_at) / RFU FAM211A (11726209_a_at) / Fold change /veh FAM211A (11726209_a_at) / RFU RGS16 (11746705_a_at) / Fold change /veh RGS16 (11746705_a_at) / RFU VCAN (11755009_s_at) / Fold change /veh VCAN (11755009_s_at) / RFU RHOB (11743442_s_at) / Fold change /veh RHOB (11743442_s_at) / RFU RGS16 (11720943_a_at) / Fold change /veh RGS16 (11720943_a_at) / RFU RGS16 (11720944_at) / Fold change /veh RGS16 (11720944_at) / RFU, VPS4B / Fold change vs veh, VPS4B / RFU, CREB1 / Fold change vs veh, CREB1 / RFU, DNAJC13 / Fold change vs veh, DNAJC13 / RFU, GNAQ / Fold change vs veh, GNAQ / RFU, CDK5R1 / Fold change vs veh, CDK5R1 / RFU, ZRANB3 / Fold change vs veh, ZRANB3 / RFU, CUL4A / Fold change vs veh, CUL4A / RFU, CCNY / Fold change vs veh, CCNY / RFU, UFL1 / Fold change vs veh, UFL1 / RFU, COG3 / Fold change vs veh, COG3 / RFU, DIAPH2 / Fold change vs veh, DIAPH2 / RFU, SKA2 / Fold change vs veh, SKA2 / RFU, AFF3 / Fold change vs veh, AFF3 / RFU, LMF1 / Fold change vs veh, LMF1 / RFU, IPO11 / Fold change vs veh, IPO11 / RFU, DFFB / Fold change vs veh, DFFB / RFU, FOXP1 / Fold change vs veh, FOXP1 / RFU, CARD8 / Fold change vs veh, CARD8 / RFU, STRN3 / Fold change vs veh, STRN3 / RFU, ADK / Fold change vs veh, ADK / RFU, RASSF2 / Fold change vs veh, RASSF2 / RFU, WIPF1 / Fold change vs veh, WIPF1 / RFU, LARP1B / Fold change vs veh, LARP1B / RFU, RASA1 / Fold change vs veh, RASA1 / RFU, RB1 / Fold change vs veh, RB1 / RFU, PPFIA1 / Fold change vs veh, PPFIA1 / RFU, MAT2A / Fold change vs veh, MAT2A / RFU, CCT5 / Fold change vs veh, CCT5 / RFU, WDR92 / Fold change vs veh, WDR92 / RFU, CUX1 / Fold change vs veh, CUX1 / RFU, TTC7A / Fold change vs veh, TTC7A / RFU, TMEM135 / Fold change vs veh, TMEM135 / RFU, DEPTOR / Fold change vs veh, DEPTOR / RFU, CPM / Fold change vs veh, CPM / RFU, DNAJB6 / Fold change vs veh, DNAJB6 / RFU, CACNA2D3 / Fold change vs veh, CACNA2D3 / RFU, DTX4 / Fold change vs veh, DTX4 / RFU, TFCP2 / Fold change vs veh, TFCP2 / RFU, GMCL1 /// GMCL1P1 / Fold change vs veh, GMCL1 /// GMCL1P1 / RFU, AEBP2 / Fold change vs veh, AEBP2 / RFU, SNHG1 /// SNORD22 /// SNORD25 /// SNORD26 /// SNORD27 /// SNORD28 /// SNORD29 /// SNORD31 / Fold change vs veh, SNHG1 /// SNORD22 /// SNORD25 /// SNORD26 /// SNORD27 /// SNORD28 /// SNORD29 /// SNORD31 / Fold change (Aza/veh), C12orf56 (ProbeSet 11735607_a_at) / Fold change (ACY-1035/veh), C12orf56 (ProbeSet 11735607_a_at) / Fold change (Aza/veh), FGFR1OP (ProbeSet 11751329_s_at) / Fold change (ACY-1035/veh), FGFR1OP (ProbeSet 11751329_s_at) / Fold change (Aza/veh), VPS36 (ProbeSet 11739960_a_at) / Fold change (ACY-1035/veh), VPS36 (ProbeSet 11739960_a_at) / RFU SYPL1 (11715823_x_at) / Fold change /veh SYPL1 (11715823_x_at) / RFU IGFBP7 (11715501_s_at) / Fold change /veh IGFBP7 (11715501_s_at) / RFU REEP3 (11722064_at) / Fold change /veh REEP3 (11722064_at) / RFU IGLL1 (11728026_x_at) / Fold change /veh IGLL1 (11728026_x_at): dose or concentration left out as unconfirmed
Details: gene FGFR1OP; ACY-1035 vs DMSO; LIST F

Nc1ccc(-c2cccs2)cc1NC(=O)c1ccc2c(c1)cc(C1CC1)n2CCN1CCOCC1 [ACY-1035]
Fold change (ACY-1035/veh), FGFR1OP (ProbeSet 11751329_s_at): 0.57
